Results published in patent publication US10379016B1, “Apparatus for inoculating agar plate” (priority 2018, dated 2019).

Test system: S. aureus strain ATCC 29213
Test: Antimicrobial susceptibility test by disc diffusion method (zone of inhibition)
Format: cell-based
Details: microbial concentration 1 × 10^8 CFU/ml, 35-37° C., 18-20 h, NZI = No zone of inhibition; for Testing for zone of inhibition; Method of Inoculation: Swabbing: Mueller-Hinton agar plate inoculated by cotton swab; for Testing for zone of inhibition; Method of Inoculation: Apparatus, Double actuation / Testing for zone of inhibition; Method of Inoculation: Apparatus, Single actuation: Mueller-Hinton agar plate spray-inoculated with apparatus
Description: In an experiment, Mueller-Hinton Agar plates were prepared. Forty grams of Mueller-Hinton Agar (MHA) was suspended in 1 liter distilled water and then boiled to dissolve the powder completely. The medium was sterilized by autoclaving at 121° C. for 15 min. After autoclaving, the medium was cooled to 45° C. and poured 25 mL molten agar into sterile 90 mm diameter Petri dishes (petri plates) to give a depth of about 4 mm. The surface of the agar was dried to remove excess moisture before use.
The suspension density was measured by using an UV spectrophotometer. The density of the suspension was adjusted to McFarland 0.5 by addition of saline or more organisms. The number of colony forming units (CFU/ml) in the culture samples plays an important role in the incubation of the agar plates. For colony isolation, diluted microbial suspension (about 1-2×10^3 CFU/ml) can be sprayed over agar plate.
For comparison, some agar plates were inoculated by cotton swab. A sterile cotton swab was dipped into the bacterial suspension (1-2×10^8 CFU/ml) and the excess fluid removed by turning the swab against the inside of the tube to avoid over-inoculation of plates. The inoculum was spread evenly over the entire surface of the agar plate by swabbing in three directions.
Other agar plates were inoculated by using the present apparatus. The agar plates were inoculated with inoculum of bacterial suspension (1-2×10^8 CFU/ml). The bacterial suspension was filled in the reservoir of the present apparatus and then sprayed uniformly using the atomizer over an agar plate held inside the spray chamber using the atomizer.
Antimicrobial susceptibility tests of the S. aureus strain ATCC 29213 was determined by the disc diffusion method according to the recommendations and guidelines of Clinical Laboratory Standard Institutes (CLSI M100-S24; 2014). A panel of commercial antibiotic discs comprising Gentamicin (GM), Amikacin (AN), Chloramphenicol (C), Imipenem (IPM), Tetracycline (TE), Cefepime (FEP), Sulfamethoxazole/trimethoprim (SXT), Aztreonam (ATM) was used for susceptibility testing. All commercial antibiotic discs were purchased from BBL (Becton Dickinson, USA).
The predetermined panel of antimicrobial disks was applied firmly on the surface of inoculated Mueller-Hinton agar media by using a disc dispenser device.
Within 15 min of application of antimicrobial disks, the plates were inverted and incubated aerobically at 35-37° C. for 18-20 h.
After incubation, inhibition zones were read at the point where no obvious growth is detected by the unaided eye when the plate was held about 30 cm from the eye. The inhibition zone diameters were measured to the nearest millimeter with a ruler. The plates were read from the back of the plate with reflected light against a dark background. Zone diameters of antibiotics in swab inoculated plate were compared with zone diameter in apparatus-inoculated plates.

Molecule	Testing for zone of inhibition; Method of Inoculation: Swabbing	Testing for zone of inhibition; Method of Inoculation: Apparatus, Double actuation	Testing for zone of inhibition; Method of Inoculation: Apparatus, Single actuation
CN(C)[C@@H]1C(O)=C(C(N)=O)C(=O)[C@@]2(O)C(O)=C3C(=O)c4c(O)cccc4[C@@](C)(O)[C@H]3C[C@@H]12 [TE, Tetracycline]	22 mm	24 mm	25 mm
C[C@@H](O)[C@H]1C(=O)N2C(C(=O)O)=C(SCCN=CN)C[C@H]12 [IPM, Imipenem]	38 mm	38 mm	38 mm
Gentamicin [GM]	21 mm	22 mm	22 mm
C[C@H]1[C@H](NC(=O)/C(=N\OC(C)(C)C(=O)O)c2csc(N)n2)C(=O)N1S(=O)(=O)O [ATM, Aztreonam]	NZI	NZI	NZI
O=C(N[C@H](CO)[C@H](O)c1ccc([N+](=O)[O-])cc1)C(Cl)Cl [C, Chloramphenicol]	21 mm	22 mm	22 mm
CO/N=C(\C(=O)N[C@@H]1C(=O)N2C(C(=O)[O-])=C(C[N+]3(C)CCCC3)CS[C@H]12)c1csc(N)n1 [FEP, Cefepime]	NZI	NZI	NZI
NCC[C@H](O)C(=O)N[C@@H]1C[C@H](N)[C@@H](O[C@H]2O[C@H](CN)[C@@H](O)[C@H](O)[C@H]2O)[C@H](O)[C@H]1O[C@H]1O[C@H](CO)[C@@H](O)[C@H](N)[C@H]1O [AN, Amikacin]	22 mm	23 mm	26 mm
